According to patent publication US20240018122A1, “PYRIDAZINYL AMINO DERIVATIVES AS ALK5 INHIBITORS” (CHIESI FARMACEUTICI S.P.A., priority 2020, published 2024):
Read-outs that look alike come from different tables or passages of the source.

Target: human ALK5 (Homo sapiens (Human), UniProt P36897)
Assay: ADP-GLO Kinases assay, inhibitory activity on ALK5
Type: biochemical
Description: The enzymatic activity of compounds of the present invention was monitored measuring the formation of ADP using the ADP-GLO Kinases assay. Following the incubation of the purified enzyme, a substrate and ATP, the produced ADP was converted into ATP, which in turn was converted into light by Ultra-Glo Luciferase. The luminescent signal positively correlated with ADP amount and kinase activity. […] The assay was performed in 384-well format and was validated using a selection of reference compounds that was tested in 11 point concentration-response curve.

[1] = purified recombinant human ALK5 2.6 nM, TGFβ1 peptide substrate, 25° C, 150 min incubation, ADP-Glo detection, read-out: ALK5 IC50

human ALK5, sequence (P36897 80-503 limits assumed): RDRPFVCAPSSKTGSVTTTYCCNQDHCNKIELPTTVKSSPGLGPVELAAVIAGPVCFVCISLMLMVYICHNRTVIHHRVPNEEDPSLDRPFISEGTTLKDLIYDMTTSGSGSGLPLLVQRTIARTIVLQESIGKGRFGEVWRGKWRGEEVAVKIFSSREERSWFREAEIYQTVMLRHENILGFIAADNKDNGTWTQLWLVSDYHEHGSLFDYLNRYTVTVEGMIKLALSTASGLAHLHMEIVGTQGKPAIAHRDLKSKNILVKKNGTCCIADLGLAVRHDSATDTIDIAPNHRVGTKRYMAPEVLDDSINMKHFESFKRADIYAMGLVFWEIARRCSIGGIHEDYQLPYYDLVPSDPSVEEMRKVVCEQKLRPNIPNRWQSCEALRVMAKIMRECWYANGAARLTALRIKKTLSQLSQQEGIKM

SMILES | IC50 [1] | IC50
CCOC(=O)C1CN(CCC(=O)Nc2cc(Nc3cc(-c4cc(Cl)ccc4F)nnc3C)ccn2)CCN1C (centres unmarked) [Example 122, Ethyl 4-{2-[(4-{[6-(5-Chloro-2-Fluorophenyl)-3-Methylpyridazin-4-Yl]Amino}Pyridin-2-Yl)Carbamoyl]Ethyl}-1-Methylpiperazine-2-Carboxylate] | < 1 nM | 
O=C(Oc1ccc2c(Nc3cnnc(-c4cc(Cl)ccc4F)c3)ccnc2c1)N1CCC(N2CCC2)CC1 [Example 134, 4-{[6-(5-Chloro-2-Fluorophenyl)Pyridazin-4-Yl]Amino}Quinolin-7-Yl 4-(Azetidin-1-Yl)Piperidine-1-Carboxylate] | < 1 nM | 
CN1CC2(CCN(CC(=O)Nc3cc(Nc4cc(-c5cc(Cl)ccc5F)nnc4CO)ccn3)CC2)C1 [Example 179, N-(4-{[6-(5-Chloro-2-Fluorophenyl)-3-(Hydroxymethyl)Pyridazin-4-Yl]Amino}Pyridin-2-Yl)-2-{2-Methyl-2,7-Diazaspiro[3.5]Nonan-7-Yl}Acetamide] | < 1 nM | 
CN1CCN(C(=O)c2cc3c(Nc4cnnc(-c5cc(Cl)ccc5F)c4)ccnc3[nH]2)CC1 [Example 38, 6-(5-Chloro-2-Fluorophenyl)-N-[2-(4-Methylpiperazine-1-Carbonyl)-1H-Pyrrolo[2,3-13]Pyridin-4-Yl]Pyridazin-4-Amine] | 1 to 5 nM | 
CN1CCN(CCNC(=O)c2cc3c(Nc4cnnc(-c5cc(Cl)ccc5F)c4)ccnc3[nH]2)CC1 [Example 25, 4-{[6-(5-chloro-2-fluorophenyl)pyridazin-4-yl]amino}-N-[2-(4-methylpiperazin-1-yl)ethyl]-1H-pyrrolo[2,3-b]pyridine-2-carboxamide] | < 1 nM | 
CN1CCC(CN2CCN(C(=O)Oc3ccc4c(Nc5cnnc(-c6cc(Cl)ccc6F)c5)ccnc4c3)CC2)CC1 [Example 100, 4-{[6-(5-Chloro-2-Fluorophenyl)Pyridazin-4-Yl]Amino}Quinolin-7-Yl 4-[(1-Methylpiperidin-4-Yl)Methyl]Piperazine-1-Carboxylatate] |  | 1 to 5 nM
COC(=O)c1cc2c(Nc3cc(-c4cc(Cl)ccc4F)nnc3CO)ccnc2cc1OCCN1CCN(C)CC1 [Example 165, Methyl 4-{[6-(5-Chloro-2-Fluorophenyl)-3-(Hydroxymethyl)Pyridazin-4-Yl]Amino}-7-[2-(4-Methylpiperazin-1-Yl)Ethoxy]Quinoline-6-Carboxylate] | < 1 nM | 
CN1CCC(CCNC(=O)c2cc3c(Nc4cnnc(-c5cc(Cl)ccc5F)c4)ccnc3[nH]2)CC1 [Example 27, 4-{[6-(5-Chloro-2-Fluorophenyl)Pyridazin-4-Yl]Amino}-N-[2-(1-Methylpiperidin-4-Yl)Ethyl]-1H-Pyrrolo[2,3-b]Pyridine-2-Carboxamide] | < 1 nM | 
CS(=O)(=O)N1CCCN(CCC(=O)Nc2cc(Nc3cnnc(-c4cc(Cl)ccc4F)c3)ccn2)C1 [Example 44, N-(4-{[6-(5-Chloro-2-Fluorophenyl)Pyridazin-4-Yl]Amino}Pyridin-2-Yl)-3-(3-Methanesulfonyl-1,3-Diazinan-1-Yl)Propanamide] | < 1 nM | 
CC(=O)NCCN1CCN(CCOc2ccc3c(Nc4cnnc(-c5cc(Cl)ccc5F)c4)ccnc3c2)CC1 [Example 69, N-[2-(4-{2-[(4-{[6-(5-Chloro-2-Fluorophenyl)Pyridazin-4-Yl]Amino}Quinolin-7-Yl)Oxy]Ethyl}Piperazin-1-Yl)Ethyl]Acetamide] | < 1 nM | 
Cc1nnc(-c2cc(Cl)ccc2F)cc1Nc1ccnc2[nH]c(C(=O)NCCN3CCN(C)CC3)cc12 [Example 49, 4-{[6-(5-Chloro-2-Fluorophenyl)-3-Methylpyridazin-4-Yl]Amino}-N-[2-(4-Methylpiperazin-1-Yl)Ethyl]-M-Pyrrolo[2,3-b]Pyridine-2-Carboxamide] | < 1 nM | 
N#CCCN1CCN(CCOc2ccc3c(Nc4cnnc(-c5cc(Cl)ccc5F)c4)ccnc3c2)CC1 [Example 71, 3-(4-{2-[(4-{[6-(5-Chloro-2-Fluorophenyl)Pyridazin-4-Yl]Amino}Quinolin-7-Yl)Oxy]Ethyl}Piperazin-1-Yl)Propanenitrile] | < 1 nM | 
Cc1nnc(-c2cc(Cl)ccc2F)cc1Nc1ccnc2cc(OC(=O)N3CCC(N4CCC4)CC3)ccc12 [Example 153, 4-{[6-(5-Chloro-2-Fluorophenyl)-3-Methylpyridazin-4-Yl]Amino}Quinolin-7-Yl 4-(Azetidin-1-Yl)Piperidine-1-Carboxylate] | < 1 nM | 

Now from value to compound, other results behind:

IC50 [1] | SMILES | IC50
< 1 nM | CN1CCN(CC(=O)Nc2cc(Nc3cc(-c4cc(Cl)ccc4F)nnc3CO)ccn2)CC1 [Example 176, N-(4-{[6-(5-chloro-2-fluorophenyl)-3-(hydroxymethyl)pyridazin-4-yl]amino}pyridin-2-yl)-2-(4-methylpiperazin-1-yl)acetamide] | 
< 1 nM | Cc1nnc(-c2cc(Cl)ccc2F)cc1Nc1ccnc(NC(=O)CN2CC3(CN(C)C3)C2)c1 [Example 143, N-(4-{[6-(5-Chloro-2-Fluorophenyl)-3-Methylpyridazin-4-Yl]Amino}Pyridin-2-Yl)-2-{6-Methyl-2,6-Diazaspiro[3.3]Heptan-2-Yl}Acetamide] | 
< 1 nM | Cc1nnc(-c2cc(Cl)ccc2F)cc1Nc1ccnc(NC(=O)[C@H]2C[C@@H](N3CCN(C)CC3)C2)c1 [Example 162, Cis N-(4-{[6-(5-Chloro-2-Fluorophenyl)-3-Methylpyridazin-4-Yl]Amino}Pyridin-2-Yl)-3-(4-Methylpiperazin-1-Yl)Cyclobutane-1-Carboxamide] | 
< 1 nM | Cc1nnc(-c2cc(Cl)ccc2F)cc1Nc1ccnc(NC(=O)CN2CCN(CC(F)(F)F)CC2)c1 [Example 131, N-(4-{[6-(5-Chloro-2-Fluorophenyl)-3-Methylpyridazin-4-Yl]Amino}Pyridin-2-Yl)-2-[14-(2,2,2-Trifluoroethyl)Piperazin-1-Yl]Acetamide] | 
< 1 nM | COC(=O)C1CN(CCC(=O)Nc2cc(Nc3cc(-c4cc(Cl)ccc4F)nnc3C)ccn2)CCN1C(C)C (centres unmarked) [Example 113, Methyl 4-{2-[(4-{[6-(5-Chloro-2-Fluorophenyl)-3-Methylpyridazin-4-Yl]Amino}Pyridin-2-Yl)Carbamoyl]Ethyl}-1-(Propan-2-Yl)Piperazine-2-Carboxylate] | 
< 1 nM | Cc1nnc(-c2cc(Cl)ccc2F)cc1Nc1ccnc(NC(=O)CCN2CCC(F)(F)CC2)c1 [Example 139, N-(4-{[6-(5-Chloro-2-Fluorophenyl)-3-Methylpyridazin-4-Yl]Amino}Pyridin-2-Yl)-3-(4,4-Difluoropiperidin-1-Yl)Propanamide] | 
< 1 nM | Cc1nnc(-c2cc(Cl)ccc2F)cc1Nc1ccnc(NC(=O)CN2CCN(C)CC2)c1 [Example 172, N-(4-{[6-(5-Chloro-2-Fluorophenyl)-3-Methylpyridazin-4-Yl]Amino}Pyridin-2-Yl)-2-(4-Methylpiperazin-1-Yl)Acetamide] | 
< 1 nM | Cc1nnc(-c2cc(Cl)ccc2F)cc1Nc1ccnc(NC(=O)CCN2CCN(C)C(CO)C2)c1 (centres unmarked) [Example 170] | 
< 1 nM | CNCCN1CCN(CCC(=O)Nc2cc(Nc3cc(-c4cc(Cl)ccc4F)nnc3C)ccn2)CC1 [Example 104, N-(4-{[6-(5-Chloro-2-Fluorophenyl)-3-Methylpyridazin-4-Yl]Amino}Pyridin-2-Yl)-3-{4-[2-(Methylamino)Ethyl]Piperazin-1-Yl}Propanamide] | 
< 1 nM | CN1CCN(CCC(=O)Nc2cc(Nc3cc(-c4cc(Cl)ccc4F)nnc3CO)ccn2)CC1 [Example 174, N-(4-{[6-(5-chloro-2-fluorophenyl)-3-(hydroxymethyl)pyridazin-4-yl]amino}pyridin-2-yl)-3-(4-methylpiperazin-1-yl)propanamide] | 
